Experimental findings from patent publication US10676710B2, “Cell culture compositions with antioxidants and methods for polypeptide production” (Genentech, Inc., priority 2013, dated 2020) are described below.

The subject of one experiment is IgG1 monoclonal antibody. As to the kind of experiment: Antioxidant incubation screening: color intensity of antibody composition after incubation in Media 1/Media 2 mixture. Conditions: 1X test concentration in Media 1 + Media 2 mixture, 2 g/L IgG1 mAb, 5 days 37° C.; normalized to positive control (0% change). The method, then:
For antioxidant screening, a total volume of 40 ml media was prepared by mixing 1 part basal Media 1 and 0.3 part feed Media 2 to mirror a representative ratio of media used in cell culture conditions (Table 5). […] The samples were incubated at 37° C. with shaking at 250 rpm for a five day incubation period.
After incubation, the monoclonal antibody was purified using protein A affinity chromatography. The pool was concentrated to 150 g/L using Amicon Centricon centrifugal filter devices (Millipore Corporation, Billerica, Mass.). Color intensity of the concentrated antibody composition was measured in the concentrated protein A pool using an assay wherein higher numerical values indicate higher color intensity and lower numerical values indicate lower color intensity. The numerical results were normalized to the positive control, where the value for the positive control was set at 0% change in color intensity.

For experiment [1], the system named is antibody producing CHO cells. As to the kind of experiment: 2-liter stirred bioreactor fed-batch cell culture in basal Media 1/feed Media 2 supplemented with hypotaurine or analog. Conditions: for cell growth as measured by VCC: 12.95 mM hypotaurine or 10 mM carboxymethylcysteine in Media 1, 2 L bioreactor (FIG. 7A); for cell viability: 12.95 mM hypotaurine or 10 mM carboxymethylcysteine in Media 1, 2 L bioreactor (FIG. 7B); for antibody production (antibody titer by HPLC): 12.95 mM hypotaurine or 10 mM carboxymethylcysteine in Media 1, 2 L bioreactor (FIG. 8); for color intensity reduction of isolated antibody composition, specific color assay / color intensity reduction of isolated antibody composition, second color assay: 12.95 mM hypotaurine or 10 mM carboxymethylcysteine in Media 1, protein A pool 150 g/L; for color intensity reduction of isolated antibody composition, specific color assay: vs positive control (FIG. 9A); for color intensity reduction of isolated antibody composition, second color assay: vs positive control (FIG. 9B). It is filed as cell-based, Chinese hamster. On the procedure: Antibody producing CHO cells were inoculated at approximately 1.0×10^6 cells/mL in 2-liter stirred bioreactors (Applikon, Foster City, Calif.) containing 1 L of basal Media 1 supplemented with 12.95 mM hypotaurine or 10 mM carboxymethylcysteine (CAS number 638-23-3). Cells were cultured in fed-batch mode with addition of 100 mL of feed Media 2 per liter of cell culture fluid at days 3, 6 and 9 for initiation of the production phase. A positive control was included by culturing cells in Media 1 and 2 without hypotaurine supplementation. The concentration of glucose was analyzed every day and if the glucose concentration fell below 2 g/L, it was replenished from a […] stock solution of glucose for prevention of glucose depletion. Reactors were equipped with calibrated dissolved oxygen, pH and temperature probes. Dissolved oxygen was controlled on-line through sparging with air and/or oxygen. pH was controlled through addition of CO2 or Na2CO3 and antifoam was added to the cultures as needed. The cell cultures were maintained at pH 7.0 and a temperature of 37° C. from days 0 through 3, and then at 35° C. after day 3. The cell cultures were agitated at 275 rpm and the dissolved oxygen level was at 30% of air saturation. Osmolality was monitored using an osmometer from Advanced Instruments (Norwood, Mass.). Offline pH and metabolite concentrations were also determined daily using a Nova Bioprofile 400 (Nova Biomedical, Waltham, Mass.). VCC and cell viability was measured daily using a ViCell® automated cell counter (Beckman Coulter, Fullerton, Calif.). The cell culture fluid was collected daily by centrifuging 1 mL of cell culture fluid for determination of antibody titer using high performance liquid chromatography. At the end of the cell culture duration on day 14, when the amount of protein in the culture was approximately 2-10 g/L, the cell culture fluid from all samples was harvested by centrifugation. The monoclonal antibody in the harvested cell culture fluid was purified using protein A affinity chromatography. The protein A pool was concentrated to 150 g/L using Amicon Centricon centrifugal filter devices (Millipore Corporation, Billerica, Mass.). Color intensity of the concentrated antibody composition was measured in the concentrated protein A pool using two different assays wherein higher numerical values indicated higher color intensity and lower numerical values indicated lower color intensity. […] This color intensity reduction was confirmed by using a second color assay which detected an approximate 17% and 13% color intensity reduction in antibody compositions isolated from cell cultured in media supplemented with hypotaurine and carboxymethylcysteine, respectively (FIG. 9B).

Setting [2] is: listed as carboxy methyl cysteine.

For `NCCS(=O)(=O)O` [Taurine, 2-aminoethane-1-sulfonic acid], the “reduction of color intensity of the antibody-containing compositions” value in the experiment with IgG1 monoclonal antibody is “approximately 5%”.

On to `N[C@@H](CSCC(=O)O)C(=O)O` [carboxymethylcysteine, (2R)-2-amino-3-[(carboxymethyl)sulfanyl]propanoic acid], for which, in experiment [1], the “cell growth as measured by VCC” value is given as “comparable”; the cell viability result is given as “comparable”; the “antibody production (antibody titer by HPLC)” value was “comparable levels of antibody titers”; the “color intensity reduction of isolated antibody composition, specific color assay” value worked out at 13%. In experiment [1], the “color intensity reduction of isolated antibody composition, second color assay” value was approximately 13%. Also, in experiment [1] (setting [2]), the “cell growth as measured by VCC” value is on record as “did not compromise”, the cell viability entry was “did not compromise” and the “antibody production (antibody titer by HPLC)” value is listed as “did not significantly reduce”.

Consider `NCCS(=O)O` [hypotaurine, 2-aminoethane-1-sulfinate], for which, in experiment [1], the “color intensity reduction of isolated antibody composition, specific color assay” value stood at 27% and the “color intensity reduction of isolated antibody composition, second color assay” value is approximately 17%.
